Test results taken from US3973021A, “2-[2-(5-Nitro-2-furyl)vinyl]-4-(phydroxyanilino)quinazoline as a bactericide” (Diamond Shamrock Corporation, priority 1975, dated 1976).
Positions of bridges follow the written chain, without caps; N, C: chain ends. Non-standard residues stand in square brackets, D forms with d. Residues, ends and D or L forms follow the SMILES beside them. *: point of attachment. Ileψ(thiazoline)Cys = CC[C@H](C)[C@H](N)C1=N[C@H](C(=O)*)CS1; dOrn = NCCC[C@@H](N)C(=O)O

What was measured:
Type in all cases: in vivo, broiler cross chicks
[1] = Example VIII: 4 week chick feeding test at low levels; settings: 4 g/T in Basal Ration
Source text: Day old broiler cross chicks were weight equalized into groups of 8 chicks each and were placed in battery brooders. The 32 chick treatment groups (4 replicates) were fed one of the five rations described below for a four week period. Weekly measurements of body weights and feed consumption were made by replicate, and these measurements used to calculate weight gain and feed efficiency.
The basal ration was the basal ration used in Example VII above. The remaining five rations wer obtained by mixing the indicated quantities of bacitracin (4 g/T), chlortetracycline (10 g/T), product of Example I (10 g/T), and product of Example II of U.S. Pat. No. 3,542,784 -- Burch (10 g/T) as growth promotants with the basal ration.

[2] = Example XI: 4 week chick feeding test, five replicates; settings: for feed efficiency (in words) / growth rate (in words): Table V
Source text: This example compares growth promotion activity of the product of Example I with other growth promotants at a concentration of 25 g/T in the Basal Ration described in Example VII. The other growth promotants include the product described in Example I of U.S. Pat. No. 3,542,784 -- Burch and quinoxaline-1,4-dioxide. Day old broiler cross chicks were weight equalized into groups of 8 chicks each, and four replicates of 8 chicks each were fed the experimental rations over a 4 week period.
The growth promotion tests described in Example X were repeated with the exception that fives replicates of 8 chicks each were fed the formulations described in Table V for four weeks.

[3] = Example VII: 4 week chick feeding test, weight gain and feed efficiency; settings: analysis of variance; over Basal Ration + Bacitracin
Source text: One hundred twenty day-old broiler cross chicks were weight equalized into 15 groups of 8 chicks each and placed in battery brooders. The 40 chick treatment groups (5 replicates) were fed the one of the three rations described below for a four week period. weekly measurements of body weights and feed consumption were made by replicate, and these measurements used to calculate weight gain and feed efficiency.
The commercial type broiler starter basal ration which was used in this study was designated as the Basal Ration, and had the following composition:
The preceding basal ration was mixed with bacitracin at a level of 4 g/T as the only growth stimulant to simulate commercial practice. This mixture was designated as the Basal Ration + Bacitracin (4 g/T) and constituted the negative control in this study.
A second ration was prepared by fortifying the Basal Ration + bacitracin described above with the Product from Example I above at a level of 200 g/T, and was designated as Basal Ration + Bacitracin + Product of Example I (200 g/T). A third ration was prepared by fortifying the Basal Ration + bacitracin described above with chlortetracycline (CTC) at a level of 200 g/T, and was designated as Basal Ration + Bacitracin + Chlortetracycline (200 g/T).
The term "growth promotion" is used herein to describe the beneficial effect of a compound in eliciting a more rapid of weight gain when compared to the weight gain of control animals not fed the compound. "Feed efficiency" is a term regularly used in animal husbandry and is a measure of the pounds of feed required to produce a pound of gain in the weight of the animal. A lower mathmatical value for feed efficiency reflects improved performance.

Compound	Improved Response Over Basal Ration: Feed Efficiency [1]	Improved Response Over Basal Ration: Gain [1] [%]	Improved Response Over Basal Ration: Feed Efficiency ([2]; 25g/T)	Improved Response Over Basal Ration: Gain ([2]; 25g/T)	feed efficiency (in words) [2]	growth rate (in words) [2]	statistical significance of improved feed efficiencies [3]	statistical significance of improved weight gains [3]
CC[C@H](C)[C@H](N)C1=N[C@H](C(=O)N[C@@H](CC(C)C)C(=O)N[C@H](CCC(=O)O)C(=O)N[C@H](C(=O)N[C@H]2CCCCNC(=O)[C@H](CC(N)=O)NC(=O)[C@@H](CC(=O)O)NC(=O)[C@H](Cc3cnc[nH]3)NC(=O)[C@@H](Cc3ccccc3)NC(=O)[C@H]([C@@H](C)CC)NC(=O)[C@@H](CCCN)NC2=O)[C@@H](C)CC)CS1 [Bacitracin] ({Ileψ(thiazoline)Cys}-L[dE]IK[dOrn]I[dF]H[dD]N; lactam 4-C)	+1.2%	-2.3	+3.1%	+1.2%	moderate improvements in feed efficiencies	slight improvements in growth rates		
CN(C)[C@@H]1C(O)=C(C(N)=O)C(=O)[C@@]2(O)C(O)=C3C(=O)c4c(O)ccc(Cl)c4[C@@](C)(O)[C@H]3C[C@@H]12 [Chlortetracycline, reference compound]					moderate improvements in feed efficiencies	slight improvements in growth rates	significant at the 99.9% level of probability	significant at the 99.5% level of probability
